The source made the active and inactive calls. The rule behind the calls is not given here.
Experiments:
[1] = target: T1, Janus Kinase (JAK) (Homo sapiens) (UniProt P52333+P23458+O60674+P29597); test: Inhibition of JAK-mediated GM-CSF-induced Stat5 phosphorylation in human U937 cells by Phospho-Flow cytometry at 20 uM; type: cell-based; conditions: U-937
[2] = target: T1, Janus Kinase (JAK) (Homo sapiens); test: Inhibition of JAK-mediated interferon-gamma-induced Stat1 phosphorylation in human U937 cells by Phospho-Flow cytometry at 20 uM; type: cell-based; conditions: U-937
[3] = target: MAP kinase p38 (Homo sapiens, UniProt O15264+Q15759+Q16539+P53778); test: Inhibition of anisomycin-induced p38 phosphorylation in human U937 cells by Phospho-Flow cytometry at 20 uM; type: cell-based; conditions: U-937
[4] = Inhibition of JAK-mediated IL4-induced Stat5 phosphorylation in BALB/c mouse CD11b-int macrophages by Phospho-Flow cytometry
[5] = Inhibition of JAK-mediated IL6-induced Stat1 phosphorylation in BALB/c mouse B cells by Phospho-Flow cytometry; type: cell-based
[6] = Inhibition of JAK-mediated IL10-induced Stat3 phosphorylation in BALB/c mouse B cells by Phospho-Flow cytometry; type: cell-based
[7] = Inhibition of JAK-mediated interferon-gamma-induced Stat1 phosphorylation in BALB/c mouse B cells by Phospho-Flow cytometry; type: cell-based
[8] = Inhibition of JAK-mediated IL6-induced Stat3 phosphorylation in BALB/c mouse B cells by Phospho-Flow cytometry; type: cell-based
[9] = Inhibition of JAK-mediated IL15-induced Stat5 phosphorylation in BALB/c mouse B cells by Phospho-Flow cytometry; type: cell-based
[10] = Inhibition of JAK-mediated IL7-induced Stat5 phosphorylation in BALB/c mouse B cells by Phospho-Flow cytometry; type: cell-based
[11] = Inhibition of JAK-mediated IL4-induced Stat5 phosphorylation in BALB/c mouse B cells by Phospho-Flow cytometry; type: cell-based
[12] = Inhibition of JAK-mediated IL6-induced Stat1 phosphorylation in BALB/c mouse CD4+ T cells by Phospho-Flow cytometry; type: cell-based; conditions: T-cell
[13] = Inhibition of JAK-mediated IL10-induced Stat3 phosphorylation in BALB/c mouse CD4+ T cells by Phospho-Flow cytometry; type: cell-based; conditions: T-cell
[14] = Inhibition of JAK-mediated interferon-gamma-induced Stat1 phosphorylation in BALB/c mouse CD4+ T cells by Phospho-Flow cytometry; type: cell-based; conditions: T-cell
[15] = Inhibition of JAK-mediated IL6-induced Stat3 phosphorylation in BALB/c mouse CD4+ T cells by Phospho-Flow cytometry; type: cell-based; conditions: T-cell
[16] = Inhibition of JAK-mediated IL15-induced Stat5 phosphorylation in BALB/c mouse CD4+ T cells by Phospho-Flow cytometry; type: cell-based; conditions: T-cell
[17] = Inhibition of JAK-mediated IL7-induced Stat5 phosphorylation in BALB/c mouse CD4+ T cells by Phospho-Flow cytometry; type: cell-based; conditions: T-cell
[18] = Inhibition of JAK-mediated IL4-induced Stat6 phosphorylation in BALB/c mouse CD4+ T cells by Phospho-Flow cytometry; type: cell-based; conditions: T-cell
[19] = Inhibition of JAK-mediated IL4-induced Stat5 phosphorylation in BALB/c mouse CD4+ T cells by Phospho-Flow cytometry; type: cell-based; conditions: T-cell
[20] = Inhibition of JAK-mediated IL6-induced Stat1 phosphorylation in BALB/c mouse CD8+ T cells by Phospho-Flow cytometry; type: cell-based; conditions: T-cell
[21] = Inhibition of JAK-mediated IL10-induced Stat3 phosphorylation in BALB/c mouse CD8+ T cells by Phospho-Flow cytometry; type: cell-based; conditions: T-cell
[22] = Inhibition of JAK-mediated IL6-induced Stat3 phosphorylation in BALB/c mouse CD8+ T cells by Phospho-Flow cytometry; type: cell-based; conditions: T-cell
[23] = Inhibition of JAK-mediated IL15-induced Stat5 phosphorylation in BALB/c mouse CD8+ T cells by Phospho-Flow cytometry; type: cell-based; conditions: T-cell
[24] = Inhibition of JAK-mediated IL7-induced Stat5 phosphorylation in BALB/c mouse CD8+ T cells by Phospho-Flow cytometry; type: cell-based; conditions: T-cell
[25] = Inhibition of JAK-mediated IL4-induced Stat6 phosphorylation in BALB/c mouse CD8+ T cells by Phospho-Flow cytometry; type: cell-based; conditions: T-cell
[26] = Inhibition of JAK-mediated IL4-induced Stat5 phosphorylation in BALB/c mouse CD8+ T cells by Phospho-Flow cytometry; type: cell-based; conditions: T-cell
[27] = Inhibition of JAK-mediated IL6-induced Stat1 phosphorylation in BALB/c mouse CD11b-hi neutrophils by Phospho-Flow cytometry
[28] = Inhibition of JAK-mediated IL10-induced Stat3 phosphorylation in BALB/c mouse CD11b-hi neutrophils by Phospho-Flow cytometry
[29] = Inhibition of JAK-mediated interferon-gamma-induced Stat1 phosphorylation in BALB/c mouse CD11b-hi neutrophils by Phospho-Flow cytometry
[30] = Inhibition of JAK-mediated IL6-induced Stat3 phosphorylation in BALB/c mouse CD11b-hi neutrophils by Phospho-Flow cytometry
[31] = Inhibition of JAK-mediated IL15-induced Stat5 phosphorylation in BALB/c mouse CD11b-hi neutrophils by Phospho-Flow cytometry
[32] = Inhibition of JAK-mediated IL7-induced Stat5 phosphorylation in BALB/c mouse CD11b-hi neutrophils by Phospho-Flow cytometry
[33] = Inhibition of JAK-mediated IL4-induced Stat5 phosphorylation in BALB/c mouse CD11b-hi neutrophils by Phospho-Flow cytometry
[34] = Inhibition of JAK-mediated IL6-induced Stat1 phosphorylation in BALB/c mouse CD11b-int macrophages by Phospho-Flow cytometry
[35] = Inhibition of JAK-mediated IL10-induced Stat3 phosphorylation in BALB/c mouse CD11b-int macrophages by Phospho-Flow cytometry
[36] = Inhibition of JAK-mediated interferon-gamma-induced Stat1 phosphorylation in BALB/c mouse CD11b-int macrophages by Phospho-Flow cytometry
[37] = Inhibition of JAK-mediated IL6-induced Stat3 phosphorylation in BALB/c mouse CD11b-int macrophages by Phospho-Flow cytometry
[38] = Inhibition of JAK-mediated IL15-induced Stat5 phosphorylation in BALB/c mouse CD11b-int macrophages by Phospho-Flow cytometry
[39] = Inhibition of JAK-mediated IL7-induced Stat5 phosphorylation in BALB/c mouse CD11b-int macrophages by Phospho-Flow cytometry
[40] = Inhibition of JAK-mediated IL4-induced Stat6 phosphorylation in BALB/c mouse CD11b-int macrophages by Phospho-Flow cytometry
[41] = target: T1, Janus Kinase (JAK) (Homo sapiens); test: Inhibition of JAK-mediated interferon-gamma/anisomycin-induced Stat1 phosphorylation in human U937 cells by Phospho-Flow cytometry; type: cell-based; conditions: U-937

CC(C)=CC(=O)O[C@H]1[C@H]2[C@H](OC(=O)[C@H]2C)[C@H](O)[C@@H](C)[C@@H]2C=CC(=O)[C@]21C
inhibition [1]: 25% | inhibition [2]: > 65% | inhibition [3]: 25%

O=C1C=C2C(=CCOC2O)O1 (stereo not drawn)
inhibition [1]: 25% | inhibition [2]: > 65% | inhibition [3]: 25%

C[C@H]1CC[C@@H]2[C@@H](C)[C@H]3[C@H](C[C@H]4[C@@H]5CC=C6C[C@@H](O[C@@H]7O[C@H](CO)[C@H](O)[C@H](O[C@@H]8O[C@H](CO)[C@@H](O)[C@H](O)[C@H]8O)[C@H]7O[C@H]7O[C@@H](C)[C@H](O)[C@@H](O)[C@H]7O)CC[C@]6(C)[C@H]5CC[C@]34C)N2C1
inhibition [1]: 25% | inhibition [2]: > 65% | inhibition [3]: 25%

O=Nc1c(-c2c(O)[nH]c3ccccc23)[nH]c2ccccc12 [INDIRUBIN-3-MONOXIME]
IC50 [4]: < 20 µM | IC50 [5]: < 20 µM | IC50 [6]: < 20 µM | IC50 [7]: < 20 µM | IC50 [8]: < 20 µM | IC50 [9]: < 20 µM | IC50 [10]: < 20 µM | IC50 [11]: < 20 µM | IC50 [12]: < 20 µM | IC50 [13]: < 20 µM | IC50 [14]: < 20 µM | IC50 [15]: < 20 µM | IC50 [16]: < 20 µM | IC50 [17]: < 20 µM | IC50 [18]: < 20 µM | IC50 [19]: < 20 µM | IC50 [20]: < 20 µM | IC50 [21]: < 20 µM | IC50 [22]: < 20 µM | IC50 [23]: < 20 µM | IC50 [24]: < 20 µM | IC50 [25]: < 20 µM | IC50 [26]: < 20 µM | IC50 [27]: < 20 µM | IC50 [28]: < 20 µM | IC50 [29]: < 20 µM | IC50 [30]: < 20 µM | IC50 [31]: < 20 µM | IC50 [32]: < 20 µM | IC50 [33]: < 20 µM | IC50 [34]: < 20 µM | IC50 [35]: < 20 µM | IC50 [36]: < 20 µM | IC50 [37]: < 20 µM | IC50 [38]: < 20 µM | IC50 [39]: < 20 µM | IC50 [40]: < 20 µM

CC[C@H]1CN2CCc3cc(OC)c(OC)cc3[C@@H]2C[C@@H]1C[C@H]1NCCc2c1[nH]c1ccc(O)cc21
inhibition [1]: 25% | inhibition [2]: > 65% | inhibition [3]: 25%

CC(C)(C)c1nc2c3ccc(F)cc3c3c(=O)[nH]ccc3c2[nH]1
Activity [41]: Active | IC50 [5]: < 20 µM | IC50 [6]: > 20 µM

CC(C)c1oc(=O)cc2c1[C@@H](O)[C@H]1OC(=O)[C@@]3(C)[C@@H](O)[C@H]4O[C@H]4[C@@]2(C)[C@@H]13
inhibition [1]: inactive | inhibition [2]: inactive | inhibition [3]: > 65%

C=C1C(=O)O[C@@H]2C[C@@]3(C)CCC[C@H](C)C3=C[C@H]12
inhibition [1]: 25% | inhibition [2]: 25% | inhibition [3]: 25%

CO[C@@H]1[C@@H](OC(=O)c2ccc(C)[nH]2)[C@@H](O)[C@@H](Oc2ccc3c(O)c(NC(=O)c4c[nH]c(C(=O)Nc5c(O)c6ccc(O[C@H]7OC(C)(C)[C@H](OC)[C@@H](OC(=O)c8ccc(C)[nH]8)[C@H]7O)c(C)c6oc5=O)c4C)c(=O)oc3c2C)OC1(C)C
inhibition [1]: inactive | inhibition [2]: inactive | inhibition [3]: inactive

CC(=O)O[C@@H]1CO[C@H]2O[C@H]3[C@@H](C(C=O)=C[C@H](O)[C@@H]4C5=C(C(C)C)CC[C@]5(C)CC[C@@]34C)[C@@]2(O)C1=O
inhibition [1]: Active | inhibition [2]: > 65% | inhibition [3]: 25%

CC1CC(C)(O)CC(C(O)CC2CC(=O)NC(=O)C2)C1=O (stereo not drawn)
inhibition [1]: 25% | inhibition [2]: 25% | inhibition [3]: 25%

C[S+]([O-])c1ccc(-c2nc(-c3ccc(F)cc3)c(-c3ccncc3)[nH]2)cc1 (stereo not drawn)
Activity [41]: Active

CC1OC(CC(=O)O)CC2=C1C(=O)c1c(O)cccc1C2=O (stereo not drawn)
inhibition [1]: 25% | inhibition [2]: > 65% | inhibition [3]: 25%

C=C1C(=O)O[C@@H]2C[C@@H](C)[C@@H]3C=CC(=O)[C@@]3(C)[C@@H](O)[C@H]12
inhibition [1]: 25% | inhibition [2]: 25% | inhibition [3]: 25%

C/C=C/C1=C(Cl)C(=O)[C@H](Cl)[C@]1(O)C(=O)OC [CRYTOSPORIOPSIN]
IC50 [4]: < 20 µM | inhibition [1]: Active | inhibition [2]: > 65% | inhibition [3]: 25% | IC50 [5]: < 20 µM | IC50 [6]: < 20 µM | IC50 [7]: < 20 µM | IC50 [8]: < 20 µM | IC50 [9]: < 20 µM | IC50 [10]: < 20 µM | IC50 [15]: < 20 µM | IC50 [16]: < 20 µM | IC50 [17]: < 20 µM | IC50 [18]: < 20 µM | IC50 [19]: < 20 µM | IC50 [20]: < 20 µM | IC50 [21]: < 20 µM | IC50 [22]: < 20 µM | IC50 [23]: < 20 µM | IC50 [24]: < 20 µM | IC50 [25]: < 20 µM | IC50 [26]: < 20 µM | IC50 [27]: < 20 µM | IC50 [28]: < 20 µM | IC50 [29]: < 20 µM | IC50 [30]: < 20 µM | IC50 [31]: < 20 µM | IC50 [32]: < 20 µM | IC50 [33]: < 20 µM | IC50 [34]: < 20 µM | IC50 [35]: < 20 µM | IC50 [36]: < 20 µM | IC50 [37]: < 20 µM | IC50 [38]: < 20 µM | IC50 [39]: < 20 µM | IC50 [40]: < 20 µM

CC(=O)c1c(O)c(C)c(O)c(Cc2c(O)c3c(c(C(=O)/C=C/c4ccccc4)c2O)OC(C)(C)C=C3)c1O
inhibition [1]: 25% | inhibition [2]: > 65% | inhibition [3]: 25%

Source: ChEMBL document CHEMBL1212697, “High-content single-cell drug screening with phosphospecific flow cytometry” (Nat Chem Biol, 2008)
